Data published in PubChem BioAssay AID2060513 (Molecular Pharmacology Branch, DTP, NCI, 2025).
One block for each compound: values may come before it.

System: 299254-011-R-J1-PDC complex spheroids viability
Assay: Anticancer human tumor 299254-011-R-J1-PDC patient-derived melanoma cell line growth inhibition [GQUAD]
Settings: for IC50: curve of first compound; for viability, T/C: stronger effect = lower value
In short: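 Tumor cells were grown as complex spheroids with HUVEC endothelial cells and mesenchymal stem cells as stroma. G-quadruplex stabilizers were combined with targeted agents over half-log dilutions from near the clinical Cmax, or from 10 microM.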

[1] = second compound 0.0316 µM, first compound 0.0316 µM
[2] = second compound 0.0316 µM, first compound 0.1 µM
[3] = second compound 0.0316 µM, first compound 0.316 µM
[4] = second compound 0.0316 µM, first compound 1 µM
[5] = second compound 0.0316 µM, first compound 3.16 µM
[6] = second compound 0.0316 µM, first compound 10 µM
[7] = second compound 0.1 µM, first compound 0.0316 µM
[8] = second compound 0.1 µM, first compound 0.1 µM
[9] = second compound 0.1 µM, first compound 0.316 µM
[10] = second compound 0.1 µM, first compound 1 µM
[11] = second compound 0.1 µM, first compound 3.16 µM
[12] = second compound 0.1 µM, first compound 10 µM
[13] = second compound 0.316 µM, first compound 0.0316 µM
[14] = second compound 0.316 µM, first compound 0.1 µM
[15] = second compound 0.316 µM, first compound 0.316 µM
[16] = second compound 0.316 µM, first compound 1 µM
[17] = second compound 0.316 µM, first compound 3.16 µM
[18] = second compound 0.316 µM, first compound 10 µM
[19] = second compound 1 µM, first compound 0.0316 µM
[20] = second compound 1 µM, first compound 0.1 µM
[21] = second compound 1 µM, first compound 0.316 µM
[22] = second compound 1 µM, first compound 1 µM
[23] = second compound 1 µM, first compound 3.16 µM
[24] = second compound 1 µM, first compound 10 µM
[25] = second compound 3.16 µM, first compound 0.0316 µM
[26] = second compound 3.16 µM, first compound 0.1 µM
[27] = second compound 3.16 µM, first compound 0.316 µM
[28] = second compound 3.16 µM, first compound 1 µM
[29] = second compound 3.16 µM, first compound 3.16 µM
[30] = second compound 3.16 µM, first compound 10 µM
[31] = second compound 10 µM, first compound 0.0316 µM
[32] = second compound 10 µM, first compound 0.1 µM
[33] = second compound 10 µM, first compound 0.316 µM
[34] = second compound 10 µM, first compound 1 µM
[35] = second compound 10 µM, first compound 3.16 µM
[36] = second compound 10 µM, first compound 10 µM
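Note: spheroids exposed to the agents for seven days before readout.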
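Throughout, for viability, T/C: percent viability relative to DMSO vehicle control wells = 100%.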

SMILES: CC(=O)O[C@H]1C(=O)[C@@]2(C)[C@H]([C@H](OC(=O)c3ccccc3)[C@]3(O)C[C@H](OC(=O)[C@H](O)[C@@H](NC(=O)c4ccccc4)c4ccccc4)C(C)=C1C3(C)C)[C@]1(OC(C)=O)CO[C@@H]1C[C@@H]2O + CN(C)c1ccc(Nc2c3ccc(NC(=O)CCN4CCCC4)cc3nc3cc(NC(=O)CCN4CCCC4)ccc23)cc1
IC50 (second compound 0.0316 µM): 461 nM
IC50 (second compound 0.1 µM): 364 nM
IC50 (second compound 0.316 µM): 271 nM
IC50 (second compound 1 µM): 316 nM
IC50 (second compound 3.16 µM): 489 nM
IC50 (second compound 10 µM): 524 nM
viability, T/C [1]: 73.9%
viability, T/C [2]: 84.6%
viability, T/C [3]: 60.9%
viability, T/C [4]: 26.3%
viability, T/C [5]: 19%
viability, T/C [6]: 17.5%
viability, T/C [7]: 83.8%
viability, T/C [8]: 87.4%
viability, T/C [9]: 51.9%
viability, T/C [10]: 23.7%
viability, T/C [11]: 14.5%
viability, T/C [12]: 11.2%
viability, T/C [13]: 81.5%
viability, T/C [14]: 96%
viability, T/C [15]: 44%
viability, T/C [16]: 37.1%
viability, T/C [17]: 22.6%
viability, T/C [18]: 16.4%
viability, T/C [19]: 93.8%
viability, T/C [20]: 78%
viability, T/C [21]: 49.8%
viability, T/C [22]: 28.6%
viability, T/C [23]: 19.1%
viability, T/C [24]: 17.7%
viability, T/C [25]: 89.1%
viability, T/C [26]: 83.8%
viability, T/C [27]: 60.6%
viability, T/C [28]: 32.2%
viability, T/C [29]: 19.1%
viability, T/C [30]: 16.4%
viability, T/C [31]: 83.3%
viability, T/C [32]: 84.3%
viability, T/C [33]: 62.7%
viability, T/C [34]: 33%
viability, T/C [35]: 17.4%
viability, T/C [36]: 15.1%

SMILES: CC1COCCN1c1cc(-c2ccnn2C)c2ccnc(-c3ccn[nH]3)c2n1 (stereo not drawn) + CN(C)c1ccc(Nc2c3ccc(NC(=O)CCN4CCCC4)cc3nc3cc(NC(=O)CCN4CCCC4)ccc23)cc1
IC50 (second compound 0.0316 µM): 185 nM
IC50 (second compound 0.1 µM): 189 nM
IC50 (second compound 0.316 µM): 206 nM
IC50 (second compound 1 µM): 202 nM
IC50 (second compound 3.16 µM): 215 nM
IC50 (second compound 10 µM): 215 nM
viability, T/C [1]: 84.5%
viability, T/C [2]: 67.2%
viability, T/C [3]: 35%
viability, T/C [4]: 17.3%
viability, T/C [5]: 13%
viability, T/C [6]: 11.2%
viability, T/C [7]: 85.5%
viability, T/C [8]: 74.9%
viability, T/C [9]: 29.6%
viability, T/C [10]: 20%
viability, T/C [11]: 14.2%
viability, T/C [12]: 13%
viability, T/C [13]: 91.8%
viability, T/C [14]: 77.1%
viability, T/C [15]: 33.4%
viability, T/C [16]: 19%
viability, T/C [17]: 15.1%
viability, T/C [18]: 11.8%
viability, T/C [19]: 107%
viability, T/C [20]: 71.3%
viability, T/C [21]: 36.1%
viability, T/C [22]: 21.2%
viability, T/C [23]: 14.9%
viability, T/C [24]: 13.8%
viability, T/C [25]: 102%
viability, T/C [26]: 73.7%
viability, T/C [27]: 37%
viability, T/C [28]: 24.5%
viability, T/C [29]: 17.9%
viability, T/C [30]: 15.7%
viability, T/C [31]: 80.6%
viability, T/C [32]: 74.4%
viability, T/C [33]: 37.3%
viability, T/C [34]: 23.6%
viability, T/C [35]: 18.8%
viability, T/C [36]: 16.9%

IC50 (second compound 0.0316 µM): 4260 nM
IC50 (second compound 0.1 µM): 4920 nM
IC50 (second compound 0.316 µM): 3640 nM
IC50 (second compound 1 µM): 3990 nM
IC50 (second compound 3.16 µM): 2380 nM
IC50 (second compound 10 µM): 31.6 nM
SMILES: COc1cccc2c1C(=O)c1c(O)c3c(c(O)c1C2=O)CC(O)(C(=O)CO)CC3OC1CC(N)C(O)C(C)O1 (stereo not drawn) + Cc1cnc(CNC(=O)c2c(=O)c3ccc(N4CCCN(C)CC4)nc3n3c2sc2ccccc23)cn1
viability, T/C [1]: 104%
viability, T/C [2]: 106%
viability, T/C [3]: 87%
viability, T/C [4]: 88.3%
viability, T/C [5]: 61.3%
viability, T/C [6]: 16.9%
viability, T/C [7]: 110%
viability, T/C [8]: 104%
viability, T/C [9]: 95.2%
viability, T/C [10]: 88.2%
viability, T/C [11]: 70.5%
viability, T/C [12]: 20.9%
viability, T/C [13]: 83.3%
viability, T/C [14]: 95%
viability, T/C [15]: 75.9%
viability, T/C [16]: 78.9%
viability, T/C [17]: 54.9%
viability, T/C [18]: 11.1%
viability, T/C [19]: 81.2%
viability, T/C [20]: 76.3%
viability, T/C [21]: 86.7%
viability, T/C [22]: 76.4%
viability, T/C [23]: 63%
viability, T/C [24]: 0.21%
viability, T/C [25]: 84.8%
viability, T/C [26]: 87.7%
viability, T/C [27]: 66.2%
viability, T/C [28]: 78.2%
viability, T/C [29]: 41.1%
viability, T/C [30]: 0.21%
viability, T/C [31]: 38.2%
viability, T/C [32]: 19.6%
viability, T/C [33]: 53.9%
viability, T/C [34]: 63.3%
viability, T/C [35]: 0.39%
viability, T/C [36]: 0.28%

SMILES: C#Cc1c(F)ccc2cc(O)cc(-c3ncc4c(N5CC6CCC(C5)N6)nc(OCC56CCCN5CC(F)C6)nc4c3F)c12 (stereo not drawn) + Cc1[nH]c2ccc(F)cc2c1-c1nc2c3cccnc3c3ncccc3c2[nH]1
IC50 (second compound 0.0316 µM): > 10000 nM
IC50 (second compound 0.1 µM): > 10000 nM
IC50 (second compound 0.316 µM): > 10000 nM
IC50 (second compound 1 µM): > 10000 nM
IC50 (second compound 3.16 µM): > 10000 nM
IC50 (second compound 10 µM): > 10000 nM
viability, T/C [1]: 109%
viability, T/C [2]: 102%
viability, T/C [3]: 87.9%
viability, T/C [4]: 102%
viability, T/C [5]: 90.8%
viability, T/C [6]: 72.5%
viability, T/C [7]: 83.1%
viability, T/C [8]: 103%
viability, T/C [9]: 103%
viability, T/C [10]: 100%
viability, T/C [11]: 103%
viability, T/C [12]: 72.9%
viability, T/C [13]: 89.4%
viability, T/C [14]: 102%
viability, T/C [15]: 88.8%
viability, T/C [16]: 86.6%
viability, T/C [17]: 111%
viability, T/C [18]: 75.7%
viability, T/C [19]: 129%
viability, T/C [20]: 95.2%
viability, T/C [21]: 116%
viability, T/C [22]: 104%
viability, T/C [23]: 86.6%
viability, T/C [24]: 80.8%
viability, T/C [25]: 102%
viability, T/C [26]: 112%
viability, T/C [27]: 97.2%
viability, T/C [28]: 88.9%
viability, T/C [29]: 114%
viability, T/C [30]: 91.7%
viability, T/C [31]: 87.2%
viability, T/C [32]: 100%
viability, T/C [33]: 98.4%
viability, T/C [34]: 99.1%
viability, T/C [35]: 105%
viability, T/C [36]: 95.6%
